Data as given in patent US11730720B2, “ALK5 inhibitors” (THERAVANCE BIOPHARMA R&D IP, LLC, priority 2018, dated 2023).

Key:
[1] = test system: TGF-β-stimulated SMAD3 phosphorylation in BEAS-2B cells; experiment: Cellular ALK5 potency assay, inhibition of TGF-β stimulated pSMAD3 formation in BEAS-2B cells; type: cell-based; conditions: Homo sapiens, inhibition of TGF-β (10 ng/mL) stimulated pSMAD3 formation, 1 hour compound incubation, read-out: BEAS2B pIC50 (converted)
How it was run: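 Phospho-SMAD3 was quantified by AlphaLISA in lysates of human lung epithelial BEAS-2B cells. Compound was added 1 h (37 °C, HEPES/BSA-supplemented HBSS) before a 30 min challenge with 10 ng/mL TGF-β. Values are pIC50 relative to stimulated cells without compound.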

[2] = biological target: T1, recombinant human ALK5 (TGF-βR1) protein (Homo sapiens, UniProt P36897); experiment: Biochemical ALK5 (TGF-βR1) assay to measure pKi (LANCE Ultra ULight kinase assay); conditions: apparent pKi, converted from pIC50 using the Cheng-Prusoff equation
T1 construct: purchased Life Technologies PR9075A
T1 sequence (P36897 34-503): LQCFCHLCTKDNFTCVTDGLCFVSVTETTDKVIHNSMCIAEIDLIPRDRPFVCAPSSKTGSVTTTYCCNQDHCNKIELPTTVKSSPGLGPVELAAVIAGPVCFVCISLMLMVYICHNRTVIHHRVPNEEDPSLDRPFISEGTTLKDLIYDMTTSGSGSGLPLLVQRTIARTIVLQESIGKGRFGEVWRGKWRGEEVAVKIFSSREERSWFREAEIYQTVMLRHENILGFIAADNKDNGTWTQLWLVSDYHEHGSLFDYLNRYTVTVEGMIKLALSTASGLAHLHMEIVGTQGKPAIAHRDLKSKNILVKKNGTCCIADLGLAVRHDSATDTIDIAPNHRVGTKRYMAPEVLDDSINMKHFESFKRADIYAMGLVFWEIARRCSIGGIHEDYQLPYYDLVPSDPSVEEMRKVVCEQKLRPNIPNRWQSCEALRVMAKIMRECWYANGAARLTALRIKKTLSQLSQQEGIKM
How it was run: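 TR-FRET kinase format: compound dose range 10 μM–25 pM equilibrated 60 min with human ALK5 and ULight-labelled topoisomerase 2α peptide in HEPES/MgCl2 buffer pH 7.5 with DTT. Reaction started with ATP (125 μM stock, 5× final), 60 min at 37° C, stopped with EDTA/Eu-anti-phospho antibody; pKi derived from pIC50 via Cheng-Prusoff.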

Ki [2] [nM]	Structure (SMILES)	IC50 [1] [nM]
0.0398 to 0.316	CC(C)N1CCN(c2ccc(Nc3cnc4ccc(-c5nc[nH]c5-c5cc(Cl)ccc5F)nc4c3)nc2)CC1 [Compound 2-5, 6-(5-(5-chloro-2-fluorophenyl)-1H-imidazol-4-yl)-N-(5-(4-isopropylpiperazin-1-yl)pyridin-2-yl)-1,5-naphthyridin-3-amine]	25.1 to 158
0.0398 to 0.316	CN(C)C1CCN(c2cnc3ccc(-c4nc[nH]c4-c4cc(Cl)ccc4F)nc3c2)CC1 [Compound 2-6, 1-(6-(5-(5-chloro-2-fluorophenyl)-1H-imidazol-4-yl)-1,5-naphthyridin-3-yl)-N,N-dimethylpiperidin-4-amine]	25.1 to 158
0.398 to 3.16	Fc1ccc(Cl)cc1-c1[nH]cnc1-c1ccc2ncc(N3CCCNCC3)cc2n1 [Compound 2-7, 2-[5-(5-chloro-2-fluoro-phenyl)-1H-imidazol-4-yl]-7-(1,4-diazepan-1-yl)-1,5-naphthyridine]	25.1 to 158
0.0398 to 0.316	Fc1ccc(Cl)cc1-c1[nH]cnc1-c1ccc2ncc(N3CCNCC3)cc2n1 [Compound 2-8, 2-[5-(5-chloro-2-fluoro-phenyl)-1H-imidazol-4-yl]-7-piperazin-1-yl-1,5-naphthyridine]	≤ 20
≤ 0.0316	CNC1CCN(c2cnc3ccc(-c4nc[nH]c4-c4cc(Cl)ccc4F)nc3c2)CC1 [Compound 2-9, 1-[6-[5-(5-chloro-2-fluoro-phenyl)-1H-imidazol-4-yl]-1,5-naphthyridin-3-yl]-N-methyl-piperidin-4-amine]	25.1 to 158
0.0398 to 0.316	CN1CCN(C2CCN(c3cnc4ccc(-c5nc[nH]c5-c5cc(Cl)ccc5F)nc4c3)CC2)CC1 [Compound 2-10, 2-[5-(5-chloro-2-fluoro-phenyl)-1H-imidazol-4-yl]-7-[4-(4-methylpiperazin-1-yl)-1-piperidyl]-1,5-naphthyridine]	25.1 to 158
0.398 to 3.16	O=C(O)[C@@H]1CN(c2cnc3ccc(-c4nc[nH]c4-c4cc(Cl)ccc4F)nc3c2)CCN1 [Compound 2-13, (S)-4-(6-(5-(5-chloro-2-fluorophenyl)-1H-imidazol-4-yl)-1,5-naphthyridin-3-yl)piperazine-2-carboxylic acid]	200 to 1260
0.0398 to 0.316	Fc1ccc(Cl)cc1-c1[nH]cnc1-c1ccc2ncc(N3CCn4nc(C5=CCNC5)nc4C3)cc2n1 [Compound 2-14, 2-(5-(5-chloro-2-fluorophenyl)-1H-imidazol-4-yl)-7-(2-(2,5-dihydro-1H-pyrrol-3-yl)-5,6-dihydro-[1,2,4]triazolo[1,5-a]pyrazin-7(8H)-yl)-1,5-naphthyridine]	200 to 1260
≤ 0.0316	CN1CC=C(c2nc3n(n2)CCN(c2cnc4ccc(-c5nc[nH]c5-c5cc(Cl)ccc5F)nc4c2)C3)C1 [Compound 2-15, 2-(5-(5-chloro-2-fluorophenyl)-1H-imidazol-4-yl)-7-(2-(1-methyl-2,5-dihydro-1H-pyrrol-3-yl)-5,6-dihydro-[1,2,4]triazolo[1,5-a]pyrazin-7(8H)-yl)-1,5-naphthyridine]	25.1 to 158
0.0398 to 0.316	CNCCn1ccc(-c2cnc3ccc(-c4nc[nH]c4-c4cc(Cl)ccc4F)nc3c2)n1 [Compound 2-16, 2-(3-(6-(5-(5-chloro-2-fluorophenyl)-1H-imidazol-4-yl)-1,5-naphthyridin-3-yl)-1H-pyrazol-1-yl)-N-methylethan-1-amine]	25.1 to 158
0.0398 to 0.316	Fc1ccc(Cl)cc1-c1[nH]cnc1-c1ccc2ncc(-c3cn[nH]c3)cc2n1 [Compound 2-17, 2-[5-(5-chloro-2-fluoro-phenyl)-1H-imidazol-4-yl]-7-(1H-pyrazol-4-yl)-1,5-naphthyridine]	25.1 to 158
0.0398 to 0.316	Fc1ccc(Cl)cc1-c1[nH]cnc1-c1ccc2ncc(-c3cnn(C4CCCNC4)c3)cc2n1 (stereo not shown) [Compound 2-18, 2-[5-(5-chloro-2-fluoro-phenyl)-1H-imidazol-4-yl]-7-[1-(3-piperidyl)pyrazol-4-yl]-1,5-naphthyridine]	25.1 to 158
0.0398 to 0.316	CNCCn1cc(-c2cnc3ccc(-c4nc[nH]c4-c4cc(Cl)ccc4F)nc3c2)cn1 [Compound 2-19, 2-[4-[6-[5-(5-chloro-2-fluoro-phenyl)-1H-imidazol-4-yl]-1,5-naphthyridin-3-yl]pyrazol-1-yl]-N-methyl-ethanamine]	25.1 to 158
0.0398 to 0.316	NCCn1cc(-c2cnc3ccc(-c4nc[nH]c4-c4cc(Cl)ccc4F)nc3c2)cn1 [Compound 2-20, 2-[4-[6-[5-(5-chloro-2-fluoro-phenyl)-1H-imidazol-4-yl]-1,5-naphthyridin-3-yl]pyrazol-1-yl]ethanamine]	25.1 to 158
0.0398 to 0.316	Fc1ccc(Cl)cc1-c1[nH]cnc1-c1ccc2ncc(-c3cc4n(n3)CCNC4)cc2n1 [Compound 2-21, 2-(5-(5-chloro-2-fluorophenyl)-1H-imidazol-4-yl)-7-(4,5,6,7-tetrahydropyrazolo[1,5-a]pyrazin-2-yl)-1,5-naphthyridine]	25.1 to 158
0.0398 to 0.316	Fc1ccc(Cl)cc1-c1[nH]cnc1-c1ccc2ncc(-c3cnn4c3CNCC4)cc2n1 [Compound 2-22, 2-[5-(5-chloro-2-fluoro-phenyl)-1H-imidazol-4-yl]-7-(4,5,6,7-tetrahydropyrazolo[1,5-a]pyrazin-3-yl)-1,5-naphthyridine]	25.1 to 158
0.0398 to 0.316	Fc1ccc(Cl)cc1-c1[nH]cnc1-c1ccc2ncc(-c3nnn4c3CNCC4)cc2n1 [Compound 2-23, 2-[5-(5-chloro-2-fluoro-phenyl)-1H-imidazol-4-yl]-7-(4,5,6,7-tetrahydrotriazolo[1,5-a]pyrazin-3-yl)-1,5-naphthyridine]	25.1 to 158
0.0398 to 0.316	Fc1ccc(Cl)cc1-c1[nH]cnc1-c1ccc2ncc(-c3cnc4n3CCNC4)cc2n1 [Compound 2-24, 2-[5-(5-chloro-2-fluoro-phenyl)-1H-imidazol-4-yl]-7-(5,6,7,8-tetrahydroimidazo[1,2-a]pyrazin-3-yl)-1,5-naphthyridine]	25.1 to 158
0.0398 to 0.316	Fc1ccc(Cl)cc1-c1[nH]cnc1-c1ccc2ncc(-c3nc4n(n3)CCNC4)cc2n1 [Compound 2-25, 2-[5-(5-chloro-2-fluoro-phenyl)-1H-imidazol-4-yl]-7-(5,6,7,8-tetrahydro-[1,2,4]triazolo[1,5-a]pyrazin-2-yl)-1,5-naphthyridine]	25.1 to 158
0.0398 to 0.316	Fc1ccc(Cl)cc1-c1[nH]cnc1-c1ccc2ncc(NCCN3CCCC3)cc2n1 [Compound 2-26, 6-[5-(5-chloro-2-fluoro-phenyl)-1H-imidazol-4-yl]-N-(2-pyrrolidin-1-ylethyl)-1,5-naphthyridin-3-amine]	≤ 20
3.98 to 31.6	Fc1ccc(Cl)cc1-c1[nH]cnc1-c1ccc2ncc(Nc3ccc(N4CCN(Cc5ccccc5)CC4)cn3)cc2n1 [Compound 2-27, N-[5-(4-benzylpiperazin-1-yl)-2-pyridyl]-6-[5-(5-chloro-2-fluoro-phenyl)-1H-imidazol-4-yl]-1,5-naphthyridin-3-amine]	25.1 to 158
0.398 to 3.16	O=C(O)[C@H]1CN(c2cnc3ccc(-c4nc[nH]c4-c4cc(Cl)ccc4F)nc3c2)CCN1 [Compound 2-28, (2R)-4-[6-[5-(5-chloro-2-fluoro-phenyl)-1H-imidazol-4-yl]-1,5-naphthyridin-3-yl]piperazine-2-carboxylic acid]	200 to 1260
0.0398 to 0.316	C[C@@H]1CN(CCNc2cnc3ccc(-c4nc[nH]c4-c4cc(Cl)ccc4F)nc3c2)C[C@H](C)N1 [Compound 2-29, 6-(5-(5-chloro-2-fluorophenyl)-1H-imidazol-4-yl)-N-(2-((3S,5R)-3,5-dimethylpiperazin-1-yl)ethyl)-1,5-naphthyridin-3-amine]	25.1 to 158
0.398 to 3.16	Fc1ccc(Cl)cc1-c1[nH]cnc1-c1ccc2ncc(NC[C@@H]3CCCN3)cc2n1 [Compound 2-30, 6-[5-(5-chloro-2-fluoro-phenyl)-1H-imidazol-4-yl]-N-[[(2S)-pyrrolidin-2-yl]methyl]-1,5-naphthyridin-3-amine]	200 to 1260
0.398 to 3.16	Fc1ccc(Cl)cc1-c1[nH]cnc1-c1ccc2ncc(NCC3CCCCN3)cc2n1 (stereo not shown) [Compound 2-31, 6-[5-(5-chloro-2-fluoro-phenyl)-1H-imidazol-4-yl]-N-(2-piperidylmethyl)-1,5-naphthyridin-3-amine]	25.1 to 158
3.98 to 31.6	O=C(O)CC1CNCCN1c1cnc2ccc(-c3nc[nH]c3-c3cc(Cl)ccc3F)nc2c1 (stereo not shown) [Compound 2-32, 2-[1-[6-[5-(5-chloro-2-fluoro-phenyl)-1H-imidazol-4-yl]-1,5-naphthyridin-3-yl]piperazin-2-yl]acetic acid]	200 to 1260
